Assay results published in the NIST ThermoML archive (doi:10.1016/j.jct.2016.10.033).

Assay: xn = mol fraction of the nth substance listed
Conditions: 103 kPa, Liquid, Vibrating tube method

CO[Si](C)(C)OC [dimethoxydimethylsilane] + CO[Si](C)(OC)c1ccccc1
mass density [kg/m3]
Conditions	298.15 K	303.15 K	308.15 K	313.15 K	318.15 K
x2 = 0	857.9	852.05	846.16	840.22	834.24
x2 = 0.0501	867.91	862.2	856.41	850.61	844.75
x2 = 0.1001	877.51	871.89	866.22	860.51	854.76
x2 = 0.15	886.69	881.2	875.64	870.06	864.46
x2 = 0.2	895.55	890.16	884.71	879.29	873.78
x2 = 0.25	904.02	898.68	893.28	887.86	882.41
x2 = 0.2999	912.17	906.9	901.56	896.2	890.82
x2 = 0.3499	920.17	914.94	909.7	904.52	899.24
x2 = 0.4001	927.65	922.49	917.31	912.1	906.86
x2 = 0.4501	934.96	929.92	924.83	919.75	914.64
x2 = 0.5001	942	936.98	931.93	926.87	921.78
x2 = 0.55	948.79	943.85	938.85	933.86	928.85
x2 = 0.6	955.36	950.46	945.52	940.57	935.6
x2 = 0.6499	961.69	956.82	951.89	946.97	942.03
x2 = 0.6999	967.83	962.98	958.11	953.22	948.33
x2 = 0.75	973.78	968.97	964.15	959.31	954.48
x2 = 0.7997	979.5	974.72	969.93	965.13	960.32
x2 = 0.8499	985.08	980.34	975.58	970.81	966.02
x2 = 0.8999	990.48	985.77	981.05	976.33	971.59
x2 = 0.95	995.72	991.04	986.35	981.66	976.95

CCO[Si](C)(C)OCC [dimethyldiethoxysilane] + CO[Si](C)(OC)c1ccccc1
mass density [kg/m3]
Conditions	298.15 K	303.15 K	308.15 K	313.15 K	318.15 K
x2 = 0	835.43	830.05	824.66	819.23	813.79
x2 = 0.05	844.52	839.2	833.85	828.47	823.07
x2 = 0.1001	853.53	848.24	842.96	837.62	832.3
x2 = 0.1499	862.39	857.16	851.93	846.65	841.38
x2 = 0.2002	871.25	866.06	860.86	855.62	850.38
x2 = 0.2501	879.99	874.82	869.69	864.51	859.35
x2 = 0.3001	888.58	883.47	878.37	873.21	868.08
x2 = 0.3499	897.15	892.09	887.07	881.99	876.96
x2 = 0.4	905.59	900.56	895.53	890.45	885.39
x2 = 0.4499	914.02	909.03	904.09	899.09	894.16
x2 = 0.5	922.3	917.36	912.44	907.47	902.55
x2 = 0.55	930.51	925.59	920.71	915.78	910.89
x2 = 0.5999	938.58	933.7	928.83	923.93	919.05
x2 = 0.65	946.66	941.82	936.99	932.13	927.3
x2 = 0.6999	954.61	949.79	944.98	940.14	935.33
x2 = 0.75	962.69	957.72	952.94	948.14	943.35
x2 = 0.8	970.29	965.52	960.76	955.98	951.2
x2 = 0.8498	978.01	973.29	968.57	963.83	959.11
x2 = 0.9	985.69	980.99	976.3	971.58	966.88
x2 = 0.95	993.25	988.58	983.91	979.23	974.53

C=C[Si](C)(OCC)OCC [methylvinyldiethoxysilane] + CO[Si](C)(OC)c1ccccc1
mass density [kg/m3]
Conditions	298.15 K	303.15 K	308.15 K	313.15 K	318.15 K
x2 = 0	856.25	851.09	845.89	840.71	835.44
x2 = 0.05	863.72	858.61	853.46	848.28	843.09
x2 = 0.1001	871.17	866.08	860.96	855.82	850.66
x2 = 0.1499	878.58	873.53	868.43	863.33	858.2
x2 = 0.2001	885.98	880.95	875.9	870.83	865.74
x2 = 0.2501	893.45	888.45	883.43	878.38	873.33
x2 = 0.3	900.68	895.69	890.69	885.67	880.64
x2 = 0.3499	907.99	903.05	898.08	893.09	888.08
x2 = 0.4	915.28	910.36	905.41	900.45	895.47
x2 = 0.4501	922.58	917.68	912.77	907.84	902.89
x2 = 0.5	929.75	924.84	919.93	915	910.05
x2 = 0.5499	937	932.14	927.28	922.39	917.49
x2 = 0.6	944.21	939.4	934.57	929.72	924.87
x2 = 0.65	951.55	946.75	941.94	937.11	932.27
x2 = 0.6999	958.48	953.71	948.92	944.12	939.31
x2 = 0.75	965.63	960.89	956.12	951.35	946.57
x2 = 0.7999	972.72	968	963.25	958.51	953.74
x2 = 0.85	979.76	975.05	970.33	965.59	960.85
x2 = 0.8998	987.03	982.34	977.65	972.94	968.23
x2 = 0.9499	993.78	989.11	984.43	979.74	975.03

C=C[Si](OC)(OC)OC [trimethoxy(vinyl)silane] + CO[Si](C)(OC)c1ccccc1
mass density [kg/m3]
Conditions	298.15 K	303.15 K	308.15 K	313.15 K	318.15 K
x2 = 0	965.69	960.02	954.26	948.47	942.63
x2 = 0.05	968.08	962.41	956.71	950.99	945.24
x2 = 0.1	970.32	964.72	959.1	953.45	947.77
x2 = 0.1499	972.48	966.94	961.39	955.8	950.2
x2 = 0.2	974.57	969.11	963.63	958.1	952.57
x2 = 0.2501	976.61	971.22	965.8	960.36	954.9
x2 = 0.2999	978.59	973.25	967.91	962.52	957.14
x2 = 0.35	980.49	975.22	969.93	964.61	959.27
x2 = 0.4001	982.35	977.14	971.9	966.65	961.37
x2 = 0.4501	984.15	978.99	973.81	968.61	963.4
x2 = 0.5	985.89	980.79	975.67	970.52	965.37
x2 = 0.5499	987.58	982.53	977.46	972.37	967.27
x2 = 0.6	989.22	984.22	979.2	974.17	969.12
x2 = 0.6499	990.82	985.86	980.89	975.91	970.93
x2 = 0.7	992.37	987.46	982.54	977.6	972.65
x2 = 0.75	993.89	989.02	984.15	979.26	974.36
x2 = 0.8001	995.35	990.53	985.7	980.86	976.01
x2 = 0.8498	996.76	991.99	987.21	982.41	977.61
x2 = 0.8999	998.15	993.42	988.68	983.93	979.18
x2 = 0.9499	999.49	994.81	990.11	985.41	980.69
